{"source": "paper PMC9786741", "about": "“Elucidating the Role of Santalol as a Potent Inhibitor of Tyrosinase: In Vitro and In Silico Approaches” (Molecules, 2022)", "molecular_target": "T1, tyrosinase (mushroom tyrosinase, polyphenoloxidase EC 1.14.18.1)", "T1 construct": "gene PPO3; native enzyme from mushroom caps; ammonium sulphate, DEAE-cellulose, Superdex 200; single 63 kDa band on SDS-PAGE; isoenzyme not determined", "assay": "isothermal titration calorimetry", "parameters": "species or system Agaricus bisporus", "settings": "25 °C, pH 6.8, 25 mM phosphate; step 1 (strongest) of three-step sequential binding model", "excerpt": "isothermal titration calorimetry on tyrosinase (mushroom tyrosinase, polyphenoloxidase EC 1.14.18.1)"}
{"smiles": "C=C1C2CCC(C2)C1(C)CC/C=C(/C)CO", "note": "(stereo not shown) [santalol]", "values": [{"measurement": "Kd", "result": 1.27, "unit": "µM"}]}
